Data published in patent publication US11236068B2, “Fused ring compounds” (Genentech, Inc., priority 2018, dated 2022).
pEC50: −log10 of the molar value.

Target: K-Ras G12C (Homo sapiens (Human), UniProt P01116, G12C)
Assay: Western blot assay for in cell alkylation of K-Ras G12C (HCC1171 cells)
Type: cell-based
Settings: 18 hours at 37° C., 7 point dose response
Procedure: HCC1171 cells were maintained in RPMI1640 supplemented with 10% FBS. Cells were plated in a 96-well plate at 20,000 cells/well and the following day compounds were added to the cells. After 18 hours at 37° C., cells were lysed in RIPA buffer (Sigma RO278) with 0.5% SDS and protease/phosphatase inhibitor cocktail. After through mixing to enable complete lysis, the lysates were cleared by centrifugation before 20 µl was transferred from each well and combined with loading buffer and reducing agent. After heating for 10 minutes at 95° C., […] of each sample was loaded onto a 4-20% Tris-Glycine gel and electrophoresed at 110V for 165 minutes in SDS-PAGE running buffer. Gels were transferred to a nitrocellulose membrane, blocked for 1 hour and stained overnight at 4° C. with primary antibody against K-Ras (polyclonal Proteintech 12063-1-AP). The membrane was then washed thoroughly and counterstained with anti-rabbit IRDye 800CW (LI-COR 926-32211) for one hour at room temperature. After final washes, the membrane was imaged on a LI-COR Odyssey CLx at medium resolution. […] To quantify this affect, the LICOR software was used to draw a rectangle over alkylated and unalkylated bands for each well and measured the total fluorescent intensity (FI) in each of these bands. The following formula was then used to calculate % alkylation: FI(alkylated)/(FI(alkylated)+FI(unalkylated))*100 for each well.
A 7 point dose response curve was used to determine the IC50 for each compound. Cell alkylation data are presented below in Table 3.

Chain of K-Ras G12C (P01116 other isoform, or with tags, fused parts or gaps G12C): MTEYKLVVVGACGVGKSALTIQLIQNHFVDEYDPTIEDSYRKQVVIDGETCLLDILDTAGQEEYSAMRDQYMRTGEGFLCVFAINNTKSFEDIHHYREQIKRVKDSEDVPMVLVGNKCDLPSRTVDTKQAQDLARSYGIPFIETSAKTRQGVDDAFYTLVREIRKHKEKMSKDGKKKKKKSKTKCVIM

pEC50 | SMILES
5.54 | C=CC(=O)N1CCC(C#N)(c2ncnc3cc(-c4nc(N)cc(C)c4C(F)(F)F)c(Cl)cc23)CC1 [Example 22, 4-[7-[6-amino-4-methyl-3-(trifluoromethyl)-2-pyridyl]-6-chloro-quinazolin-4-yl]-1-prop-2-enoyl-piperidine-4-carbonitrile]
6.04 | Cc1cc(N)nc(-c2cc3ncnc(N4CCN(C(=O)C5=CCC5)C(C#N)C4)c3cc2Cl)c1C(F)(F)F (stereo not drawn) [Example 23, 4-[7-[6-amino-4-methyl-3-(trifluoromethyl)-2-pyridyl]-6-chloro-quinazolin-4-yl]-1-(cyclobutene-1-carbonyl)piperazine-2-carbonitrile]
5.20 | Cc1cc(N)nc(-c2cc3ncnc(N4CCN(C(=O)C5CO5)C(C#N)C4)c3cc2Cl)c1C(F)(F)F (stereo not drawn) [Example 24, 4-[7-[6-amino-4-methyl-3-(trifluoromethyl)-2-pyridyl]-6-chloro-quinazolin-4-yl]-1-(oxirane-2-carbonyl)piperazine-2-carbonitrile]
5.38 | C=CC(=O)N1CCN(c2ncnc3cc(-c4nc(N)ccc4C(F)(F)F)c(Cl)cc23)CC1C(F)(F)F (stereo not drawn) [Example 25, 1-[4-[7-[6-amino-3-(trifluoromethyl)-2-pyridyl]-6-chloro-quinazolin-4-yl]-2-(trifluoromethyl)piperazin-1-yl]prop-2-en-1-one]
6.85 | C=C(F)C(=O)N1CCN(c2ncnc3cc(-c4nc(N)cc(C)c4C(F)(F)F)c(Cl)cc23)CC1 [Example 26, 1-(4-[7-[6-amino-4-methyl-3-(trifluoromethyl)pyridin-2-yl]-6-chloroquinazolin-4-yl]piperazin-1-yl)-2-fluoroprop-2-en-1-one]
6.85 | C=CC(=O)N1CCN(c2ncnc3c(F)c(-c4nc(N)cc5cccc(F)c45)c(Cl)cc23)CC1 [Example 27, 1-[4-[7-(3-amino-8-fluoro-1-isoquinolyl)-6-chloro-8-fluoro-quinazolin-4-yl]piperazin-1-yl]prop-2-en-1-one]
6.08 | C=CC(=O)N1CCN(c2ncnc3cc(-c4nc(N)ccc4C(F)(F)F)c(C4CC4)cc23)CC1 [Example 29, 1-[4-[7-[6-amino-3-(trifluoromethyl)-2-pyridyl]-6-cyclopropyl-quinazolin-4-yl]piperazin-1-yl]prop-2-en-1-one]
5.11 | C=CC(=O)N1CCN(c2nc(C(F)(F)F)nc3cc(-c4nc(N)cc(C)c4C(F)(F)F)c(Cl)cc23)CC1 [Example 30, 1-(4-[7-[6-amino-4-methyl-3-(trifluoromethyl)pyridin-2-yl]-6-chloro-2-(trifluoromethyl)quinazolin-4-yl]piperazin-1-yl)prop-2-en-1-one]
6.70 | C=CC(=O)N1CCN(c2nc(NC)nc3cc(-c4nc(N)cc(C)c4C(F)(F)F)c(Cl)cc23)CC1 [Example 31, 1-(4-[7-[6-amino-4-methyl-3-(trifluoromethyl)pyridin-2-yl]-6-chloro-2-(methylamino)quinazolin-4-yl]piperazin-1-yl)prop-2-en-1-one]
6.70 | C=CC(=O)N1CCN(c2nc(C)nc3cc(-c4nc(N)cc(C)c4C(F)(F)F)c(Cl)cc23)CC1 [Example 32, 1-(4-[7-[6-amino-4-methyl-3-(trifluoromethyl)pyridin-2-yl]-6-chloro-2-methylquinazolin-4-yl]piperazin-1-yl)prop-2-en-1-one]
5.68 | C=CC(=O)N1CCN(c2ncnc3cc(-c4nc(N)cc(C(F)(F)F)c4C)c(Cl)cc23)CC1 [Example 33, 1-(4-[7-[6-amino-3-methyl-4-(trifluoromethyl)pyridin-2-yl]-6-chloroquinazolin-4-yl]piperazin-1-yl)prop-2-en-1-one]
5.47 | C=CC(=O)N1CCN(c2ncnc3cc(-c4nc(N)cc(C5CC5)c4C(F)(F)F)c(Cl)cc23)CC1 [Example 34, 1-(4-(7-(6-amino-4-cyclopropyl-3-(trifluoromethyl)pyridin-2-yl)-6-chloroquinazolin-4-yl)piperazin-1-yl)prop-2-en-1-one]
